Literature values as cited in patent US8445527B2, “Organic compounds and their uses” (Novartis AG, priority 2006, dated 2013).

Test system: HCV
Conditions: ribavirin alone

NC(=O)c1ncn([C@@H]2O[C@H](CO)[C@@H](O)[C@H]2O)n1 [Ribavirin, 1-β-D-ribofuranosyl-1-1,2,4-triazole-3-caroxamide]
patients in whom serum amino transferase levels are reduced to normal: 40%
serum levels of HCV-RNA: does not lower
